Measured values taken from ChEMBL document CHEMBL1201862, “PubChem BioAssay data set” (2004).
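Briefly, cells in 96-well plates were exposed to five compound concentrations for 48 h, and endpoints were estimated by linear interpolation. Here, GI50 denotes the concentration required for 50% inhibition of growth.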 Active and inactive are the calls of the source. Cut-off read from the data, not from the text of the source: active = GI50 up to about 1.1 µM and inactive = higher.

Experiments:
Experiment in all cases: NCI anticancer screen, dose series, 48 h
[1] = test system: NCI-H522
[2] = test system: HOP-62
[3] = test system: HCT-116
[4] = test system: K562
[5] = test system: TK-10
[6] = test system: XF498
[7] = test system: COLO 205
[8] = test system: SK-OV-3
[9] = test system: DMS-114
[10] = test system: EKVX
[11] = test system: HT-29
[12] = test system: SNB-19
[13] = test system: M19-MEL
[14] = test system: A549
[15] = test system: RXF 631
[16] = test system: ACHN
[17] = test system: MOLT-4
[18] = test system: SK-MEL-28
[19] = test system: DMS-273
[20] = test system: IGROV-1
[21] = test system: SN12C
[22] = test system: RPMI-8226
[23] = test system: SK-MEL-5
[24] = test system: 786-0
[25] = test system: DLD-1
[26] = test system: CCRF-CEM
[27] = test system: OVCAR-8
[28] = test system: KM-20L2
[29] = test system: Malme-3M
[30] = test system: NCI-H23
[31] = test system: KM12
[32] = test system: SNB-75
[33] = test system: HOP-18
[34] = test system: LOX IMVI
[35] = test system: OVCAR-3
[36] = test system: RXF 393
[37] = test system: UO-31
[38] = test system: HCT-15
[39] = test system: SF-268
[40] = test system: OVCAR-4
[41] = test system: NCI-H460
[42] = test system: M14
[43] = test system: SW-620
[44] = test system: NCI-H226
[45] = test system: OVCAR-5
[46] = test system: HOP-92
[47] = test system: SF-539
[48] = test system: U-251
[49] = test system: SNB-78
[50] = test system: CAKI-1
[51] = test system: UACC-257
[52] = test system: HCC 2998
[53] = test system: LXFL 529
[54] = test system: SK-MEL-2
[55] = test system: UACC-62
[56] = test system: A498
[57] = test system: HL-60
[58] = test system: SR
[59] = test system: SF-295

## O=C(Nc1nnc(S)[nH]1)C(=O)C(C(=O)c1ccc2ccccc2c1)C1OC(=O)c2ccccc21 (configuration not stated)
[1]
  GI50: 17.6 µM (inactive)
[2]
  GI50: 14.7 µM (inactive)
[3]
  GI50: 13.7 µM (inactive)
[4]
  GI50: 21 µM (inactive)
[5]
  GI50: 21.6 µM (inactive)
[6]
  GI50: 2.09 µM (inactive)
[7]
  GI50: 15.9 µM (inactive)
[8]
  GI50: 23.4 µM (inactive)
[9]
  GI50: 12.2 µM (inactive)
[10]
  GI50: 39.7 µM (inactive)
[11]
  GI50: 35 µM (inactive)
[12]
  GI50: 7.64 µM (inactive)
[13]
  GI50: 13.8 µM (inactive)
[14]
  GI50: 37.5 µM (inactive)
[15]
  GI50: 21.8 µM (inactive)
[16]
  GI50: > 100 µM (inactive)
[17]
  GI50: 3.78 µM (inactive)
[18]
  GI50: 14.8 µM (inactive)
[19]
  GI50: 25.5 µM (inactive)
[20]
  GI50: 20.4 µM (inactive)
[21]
  GI50: 18.2 µM (inactive)
[22]
  GI50: 7.69 µM (inactive)
[23]
  GI50: 18.1 µM (inactive)
[24]
  GI50: 14.9 µM (inactive)
[25]
  GI50: 19.5 µM (inactive)
[26]
  GI50: 15.5 µM (inactive)
[27]
  GI50: 11.9 µM (inactive)
[28]
  GI50: 35.3 µM (inactive)
[29]
  GI50: 31 µM (inactive)
[30]
  GI50: 17.1 µM (inactive)
[31]
  GI50: 26.8 µM (inactive)
[32]
  GI50: 13.8 µM (inactive)
[33]
  GI50: 0.305 µM (active)
[34]
  GI50: 17.8 µM (inactive)
[35]
  GI50: 15.5 µM (inactive)
[36]
  GI50: 10.6 µM (inactive)
[37]
  GI50: 15.7 µM (inactive)
[38]
  GI50: 27.9 µM
[39]
  GI50: 16.6 µM (inactive)
[40]
  GI50: 16.2 µM (inactive)
[41]
  GI50: > 100 µM (inactive)
[42]
  GI50: 19.1 µM (inactive)
[43]
  GI50: 28.9 µM (inactive)
[44]
  GI50: 4.85 µM (inactive)
[45]
  GI50: 44.3 µM (inactive)
[46]
  GI50: 25.8 µM (inactive)
[47]
  GI50: 5.56 µM (inactive)
[48]
  GI50: 8.15 µM (inactive)
[49]
  GI50: 29.8 µM (inactive)
[50]
  GI50: 30.3 µM (inactive)
[51]
  GI50: 19.7 µM (inactive)
[52]
  GI50: 11.5 µM (inactive)
[53]
  GI50: 12.1 µM (inactive)
[54]
  GI50: 23 µM (inactive)
[55]
  GI50: 15.6 µM (inactive)
[56]
  GI50: > 100 µM (inactive)

## Nc1nc(S)nc(C(=O)Nc2ccc(Cl)c(Cl)c2)c1-c1ccc(Cl)cc1
[1]
  GI50: > 100 µM (inactive)
[2]
  GI50: > 100 µM (inactive)
[3]
  GI50: 45.4 µM (inactive)
[4]
  GI50: 90.8 µM (inactive)
[5]
  GI50: > 100 µM (inactive)
[6]
  GI50: > 100 µM (inactive)
[7]
  GI50: > 100 µM (inactive)
[8]
  GI50: > 100 µM (inactive)
[9]
  GI50: > 100 µM (inactive)
[10]
  GI50: > 100 µM (inactive)
[11]
  GI50: 71.4 µM (inactive)
[12]
  GI50: > 100 µM (inactive)
[13]
  GI50: > 100 µM (inactive)
[14]
  GI50: > 100 µM (inactive)
[15]
  GI50: > 100 µM (inactive)
[16]
  GI50: > 100 µM (inactive)
[17]
  GI50: 14.7 µM (inactive)
[18]
  GI50: > 100 µM (inactive)
[20]
  GI50: > 100 µM (inactive)
[21]
  GI50: > 100 µM (inactive)
[22]
  GI50: 62.7 µM (inactive)
[23]
  GI50: > 100 µM (inactive)
[24]
  GI50: > 100 µM (inactive)
[25]
  GI50: > 100 µM (inactive)
[26]
  GI50: > 100 µM (inactive)
[27]
  GI50: > 100 µM (inactive)
[28]
  GI50: > 100 µM (inactive)
[29]
  GI50: > 100 µM (inactive)
[30]
  GI50: > 100 µM (inactive)
[31]
  GI50: > 100 µM (inactive)
[32]
  GI50: > 100 µM (inactive)
[33]
  GI50: > 100 µM (inactive)
[34]
  GI50: > 100 µM (inactive)
[57]
  GI50: > 100 µM (inactive)
[35]
  GI50: > 100 µM (inactive)
[36]
  GI50: > 100 µM (inactive)
[37]
  GI50: > 100 µM (inactive)
[58]
  GI50: 76.6 µM (inactive)
[38]
  GI50: > 100 µM
[39]
  GI50: > 100 µM (inactive)
[40]
  GI50: > 100 µM (inactive)
[41]
  GI50: > 100 µM (inactive)
[42]
  GI50: 87.1 µM (inactive)
[59]
  GI50: > 100 µM (inactive)
[43]
  GI50: > 100 µM (inactive)
[44]
  GI50: > 100 µM (inactive)
[45]
  GI50: > 100 µM (inactive)
[46]
  GI50: 93.1 µM (inactive)
[47]
  GI50: > 100 µM (inactive)
[48]
  GI50: > 100 µM (inactive)
[50]
  GI50: > 100 µM (inactive)
[51]
  GI50: > 100 µM (inactive)
[52]
  GI50: > 100 µM (inactive)
[53]
  GI50: > 100 µM (inactive)
[55]
  GI50: > 100 µM (inactive)
[56]
  GI50: > 100 µM (inactive)
